Molecular target: T1, CDK12 complexed with Cyclin K (Homo sapiens, UniProt Q9NYV4)
T1 construct: GST (N)
Test: CDK Enzymatic Assays (HTRF, LANCE Ultra kinase assay), Example A1
Format: biochemical
Details: enzyme pre-incubated with compounds for 60 minutes prior to addition of ATP (1 mM final) and Ulight-peptide; reaction 60-90 minutes at room temperature
Text: Example A1. CDK Enzymatic Assays
The following activity of the CDK enzymes in complex with their respective cyclins we assayed: CDK1 complexed with Cyclin B1; CDK2 complexed with Cyclin E1; CDK4 complexed with Cyclin D1; CDK6 complexed with Cyclin D1; CDK6 complexed with Cyclin D3; CDK9 complexed with Cyclin T1; CDK7 complexed with Cyclin H/MAT1; CDK2 complexed with Cyclin A2; CDK5 complexed with p35; CDK12 complexed with Cyclin K; CDK13 complexed with Cyclin K. These in vitro enzyme activity are assayed using homogeneous time-resolved energy transfer (HTRF), which measures phosphorylation of a peptide substrate. The LANCER Ultra kinase assay (PerkinElmer) uses a ULight™-labeled EIF4E-binding protein 1 (THR37/46) peptide (DYSTTPGGTLFSTTPGTRI (SEQ ID NO: 1)) substrate and a Europium-labeled anti-phospho-4E-BP1 antibody (CDK2, CDK1, CDK4, CDK6, CDK9, CDK12, CDK13) or ULight™-labeled Myelin Basic Protein peptide (VTPRTPPP (SEQ ID NO: 2)) substrate and a Europium-labeled anti-phospho-MBP antibody (CDK7). Each CDK enzyme activity assays utilized human CDK co-expressed as N-terminal GST-tagged protein with its full length cyclin partner using a baculovirus expression system.
Enzyme was pre-incubated with compounds for 30 minutes (CDK1,2,4,6,9) or 60 minutes (CDK7, CDK12, CDK13) prior to addition of ATP and Ulight-peptide (1 mM and 50 nM final, respectively), in assay buffer containing 50 mM HEPES pH 7.5, 1 mM EGTA, 10 mM MgCl2, 2 mM DTT, 0.05 mg/mL BSA, and 0.01% Tween 20. The reaction was then incubated for 60-90 minutes at room temperature. The reactions were stopped by the addition of EDTA and Europium labeled antibody, for a final concentration of 15 mM and 1.0-1.5 nM, respectively. HTRF signals were read after 15-120 minutes. A ratio of fluorescence transferred to the labeled substrate (665 nm) relative to fluorescence of the Europium donor (620 nm) represents the extent of phosphorylation. Ratios for treated wells were normalized to DMSO only (100% activity) and no enzyme (0% activity) controls. Normalized data was analyzed using a three or four parameter dose response curve to determine IC50 for each compound and are shown in Table A. Control reference inhibitors were included on each plate.

T1 sequence (Q9NYV4 whole entry): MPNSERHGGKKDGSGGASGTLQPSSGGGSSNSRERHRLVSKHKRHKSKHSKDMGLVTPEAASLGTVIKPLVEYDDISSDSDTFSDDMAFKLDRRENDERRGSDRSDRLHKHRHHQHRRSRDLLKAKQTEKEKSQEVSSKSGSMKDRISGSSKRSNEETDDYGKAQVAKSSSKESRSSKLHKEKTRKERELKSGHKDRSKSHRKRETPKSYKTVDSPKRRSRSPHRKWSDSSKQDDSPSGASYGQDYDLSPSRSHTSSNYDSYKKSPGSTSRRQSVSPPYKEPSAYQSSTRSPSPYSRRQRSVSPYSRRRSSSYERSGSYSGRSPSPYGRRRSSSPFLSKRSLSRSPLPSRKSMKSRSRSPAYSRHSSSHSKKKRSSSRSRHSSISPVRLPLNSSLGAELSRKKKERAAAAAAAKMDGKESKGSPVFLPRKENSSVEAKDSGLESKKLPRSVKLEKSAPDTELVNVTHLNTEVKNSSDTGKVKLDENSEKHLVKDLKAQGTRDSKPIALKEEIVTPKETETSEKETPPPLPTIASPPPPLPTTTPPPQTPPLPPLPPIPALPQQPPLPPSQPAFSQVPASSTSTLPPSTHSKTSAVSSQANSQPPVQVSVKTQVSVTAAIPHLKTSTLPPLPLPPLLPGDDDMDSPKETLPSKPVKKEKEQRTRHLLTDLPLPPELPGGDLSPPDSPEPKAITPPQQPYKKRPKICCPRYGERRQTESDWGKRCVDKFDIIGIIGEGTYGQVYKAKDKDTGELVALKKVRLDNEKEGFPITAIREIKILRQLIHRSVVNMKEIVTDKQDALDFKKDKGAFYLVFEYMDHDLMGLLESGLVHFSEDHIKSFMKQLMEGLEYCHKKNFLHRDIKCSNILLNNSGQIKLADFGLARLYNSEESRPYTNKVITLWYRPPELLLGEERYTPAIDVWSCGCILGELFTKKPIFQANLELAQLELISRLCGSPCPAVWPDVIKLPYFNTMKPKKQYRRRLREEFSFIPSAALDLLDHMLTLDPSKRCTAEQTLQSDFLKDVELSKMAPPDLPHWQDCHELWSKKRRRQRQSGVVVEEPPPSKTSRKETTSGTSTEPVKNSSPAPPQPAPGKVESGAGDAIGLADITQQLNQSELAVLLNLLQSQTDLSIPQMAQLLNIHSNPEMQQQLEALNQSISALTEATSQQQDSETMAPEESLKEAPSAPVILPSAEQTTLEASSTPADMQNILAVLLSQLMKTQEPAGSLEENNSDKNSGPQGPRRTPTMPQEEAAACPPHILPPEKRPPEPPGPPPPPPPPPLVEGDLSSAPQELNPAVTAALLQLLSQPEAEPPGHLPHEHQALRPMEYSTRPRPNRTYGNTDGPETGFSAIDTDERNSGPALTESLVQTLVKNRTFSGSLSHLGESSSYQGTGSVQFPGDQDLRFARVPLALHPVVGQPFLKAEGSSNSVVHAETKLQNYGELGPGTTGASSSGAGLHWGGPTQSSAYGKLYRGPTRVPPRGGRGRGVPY
T1 sequence (O75909 whole entry partner): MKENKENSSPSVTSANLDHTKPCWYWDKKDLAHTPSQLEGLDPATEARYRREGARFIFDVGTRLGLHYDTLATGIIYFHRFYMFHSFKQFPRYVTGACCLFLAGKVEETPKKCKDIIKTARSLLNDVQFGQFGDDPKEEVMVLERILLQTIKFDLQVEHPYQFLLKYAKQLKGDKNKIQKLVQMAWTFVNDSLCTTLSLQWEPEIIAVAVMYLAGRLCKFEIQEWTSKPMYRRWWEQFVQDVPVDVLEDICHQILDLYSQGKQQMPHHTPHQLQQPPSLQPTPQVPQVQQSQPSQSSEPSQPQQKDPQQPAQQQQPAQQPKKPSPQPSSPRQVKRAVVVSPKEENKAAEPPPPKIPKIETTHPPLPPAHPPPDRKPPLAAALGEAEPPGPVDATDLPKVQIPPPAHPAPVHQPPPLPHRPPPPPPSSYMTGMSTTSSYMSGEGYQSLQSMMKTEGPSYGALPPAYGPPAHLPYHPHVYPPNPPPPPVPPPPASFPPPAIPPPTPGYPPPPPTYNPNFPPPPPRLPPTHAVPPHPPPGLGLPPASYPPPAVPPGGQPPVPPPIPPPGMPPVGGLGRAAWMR

SMILES | IC50 [nM]
CC#CC(=O)Nc1nn(C)c2cc(N3CCC[C@@H](Nc4ncc(C#N)c(OC)n4)C3)ncc12 [Example 30, (R)—N-(6-(3-((5-Cyano-4-methoxypyrimidin-2-yl)amino)piperidin-1-yl)-1-methyl-1H-pyrazolo[4,3-c]pyridin-3-yl)but-2-ynamide] | < 50
CCC(Br)C(=O)Nc1nn(C)c2cc(N3CCC[C@@H](Nc4ncc(C#N)c(OC)n4)C3)ncc12 (stereo partly drawn) [Example 31, 2-Bromo-N-(6-((R)-3-((5-cyano-4-methoxypyrimidin-2-yl)amino)piperidin-1-yl)-1-methyl-1H-pyrazolo[4,3-c]pyridin-3-yl)butanamide] | < 50
COc1nc(N[C@@H]2CCCN(c3cc4c(cn3)c(NC(=O)C(C)Br)nn4C)C2)ncc1C#N (stereo partly drawn) [Example 32, 2-Bromo-N-(6-((R)-3-((5-cyano-4-methoxypyrimidin-2-yl)amino)piperidin-1-yl)-1-methyl-1H-pyrazolo[4,3-c]pyridin-3-yl)propanamide] | < 50
COc1nc(N[C@@H]2CCCN(c3cc4c(cn3)c(NC(=O)CCl)nn4C)C2)ncc1C#N [Example 33, (R)-2-Chloro-N-(6-(3-((5-cyano-4-methoxypyrimidin-2-yl)amino)piperidin-1-yl)-1-methyl-1H-pyrazolo[4,3-c]pyridin-3-yl)acetamide] | < 50
C=CC(=O)Nc1cnc2c(N3CCC[C@@H](Nc4ncc(C#N)c(OC)n4)C3)nccn12 [Example 34, (R)—N-(8-(3-((5-Cyano-4-methoxypyrimidin-2-yl)amino)piperidin-1-yl)imidazo[1,2-a]pyrazin-3-yl)acrylamide] | < 50
C=CC(=O)Nc1cccc2c(N3CCC[C@@H](Nc4ncc(C#N)c(OC)n4)C3)nn(C)c12 [Example 35, (R)—N-(3-(3-((5-Cyano-4-methoxypyrimidin-2-yl)amino)piperidin-1-yl)-1-methyl-1H-indazol-7-yl)acrylamide] | < 50
C=CC(=O)Nc1ccc2oc(N3CCC[C@@H](Nc4ncc(C#N)c(OC)n4)C3)nc2c1 [Example 36, (R)—N-(2-(3-((5-Cyano-4-methoxypyrimidin-2-yl)amino)piperidin-1-yl)benzo[d]oxazol-5-yl)acrylamide] | < 50
C=CC(=O)Nc1ccc2c(c1)nc(N1CCC[C@@H](Nc3ncc(C#N)c(OC)n3)C1)n2C [Example 37, (R)—N-(2-(3-((5-Cyano-4-methoxypyrimidin-2-yl)amino)piperidin-1-yl)-1-methyl-1H-benzo[d]imidazol-5-yl)acrylamide] | < 50
C=CC(=O)Nc1cncc2sc(N3CC[C@@H](Nc4ncc(C#N)c(OC)n4)C3)nc12 [Example 38, (R)—N-(2-(3-((5-Cyano-4-methoxypyrimidin-2-yl)amino)pyrrolidin-1-yl)thiazolo[5,4-c]pyridin-7-yl)acrylamide] | < 50
C=CC(=O)Nc1ccc2c(c1)cc(N1CCC[C@@H](Nc3ncc(C#N)c(OC)n3)C1)n2C [Example 39, (R)—N-(2-(3-((5-Cyano-4-methoxypyrimidin-2-yl)amino)piperidin-1-yl)-1-methyl-1H-indol-5-yl)acrylamide] | > 500
C=CC(=O)Nc1ccc2sc(N3CCC[C@@H](Nc4ncc(C#N)c(OC)n4)C3)nc2c1 [Example 40, (R)—N-(2-(3-((5-Cyano-4-methoxypyrimidin-2-yl)amino)piperidin-1-yl)benzo[d]thiazol-5-yl)acrylamide] | < 50
C=CC(=O)Nc1ccc2sc(N3CC[C@@H](Nc4ncc(C#N)c(OC)n4)C3)nc2c1 [Example 41, (R)—N-(2-(3-((5-Cyano-4-methoxypyrimidin-2-yl)amino)pyrrolidin-1-yl)benzo[d]thiazol-5-yl)acrylamide] | < 50
C=CC(=O)Nc1ccc2c(N3CCC[C@@H](Nc4ncc(C#N)c(OC)n4)C3)csc2c1 [Example 42, (R)—N-(3-(3-((5-Cyano-4-methoxypyrimidin-2-yl)amino)piperidin-1-yl)benzo[b]thiophen-6-yl)acrylamide] | 50 to 500
C=CC(=O)Nc1ccc2c(N3CCC[C@@H](Nc4ncc(C#N)c(OC)n4)C3)nn(C)c2c1 [Example 43, (R)—N-(3-(3-((5-Cyano-4-methoxypyrimidin-2-yl)amino)piperidin-1-yl)-1-methyl-1H-indazol-6-yl)acrylamide] | < 50
C=CC(=O)Nc1ccc2nc(N3CCC[C@@H](Nc4ncc(C#N)c(OC)n4)C3)nn2c1 [Example 44, (R)—N-(2-(3-((5-Cyano-4-methoxypyrimidin-2-yl)amino)piperidin-1-yl)-[1,2,4]triazolo[1,5-a]pyridin-6-yl)acrylamide] | < 50
C=CC(=O)Nc1ccc2nc(N3CC[C@@H](Nc4ncc(C#N)c(OC)n4)C3)nn2c1 [Example 45, (R)—N-(2-(3-((5-Cyano-4-methoxypyrimidin-2-yl)amino)pyrrolidin-1-yl)-[1,2,4]triazolo[1,5-a]pyridin-6-yl)acrylamide] | < 50
C=CC(=O)Nc1ccc2nc(N3CCC[C@@H](Nc4ncc(C#N)c(OC)n4)C3)sc2c1 [Example 46, (R)—N-(2-(3-((5-Cyano-4-methoxypyrimidin-2-yl)amino)piperidin-1-yl)benzo[d]thiazol-6-yl)acrylamide] | < 50
C=CC(=O)Nc1ccc2c(c1)nc([C@H]1CCC[C@@H](Nc3ncc(C#N)c(OC)n3)C1)n2CCO [Example 47, N-(2-((1S,3R)-3-((5-Cyano-4-methoxypyrimidin-2-yl)amino)cyclohexyl)-1-(2-hydroxyethyl)-1H-benzo[d]imidazol-5-yl)acrylamide] | < 50
CCOC(=O)/C=C/C(=O)Nc1ccc2c(c1)nc([C@H]1CCC[C@@H](Nc3ncc(C#N)c(OC)n3)C1)n2C [Example 48, Ethyl (E)-4-((2-((1S,3R)-3-((5-Cyano-4-methoxypyrimidin-2-yl)amino)cyclohexyl)-1-methyl-1H-benzo[d]imidazol-5-yl)amino)-4-oxobut-2-enoate] | < 50
CCC(Br)C(=O)Nc1ccc2c(c1)nc([C@H]1CCC[C@@H](Nc3ncc(C#N)c(OC)n3)C1)n2C (stereo partly drawn) [Example 49, 2-Bromo-N-(2-((1S,3R)-3-((5-cyano-4-methoxypyrimidin-2-yl)amino)cyclohexyl)-1-methyl-1H-benzo[d]imidazol-5-yl)butanamide] | < 50
COc1nc(N[C@@H]2CCC[C@H](c3nc4cc(NC(=O)CCl)ccc4n3C)C2)ncc1C#N [Example 50, 2-Chloro-N-(2-((1S,3R)-3-((5-cyano-4-methoxypyrimidin-2-yl)amino)cyclohexyl)-1-methyl-1H-benzo[d]imidazol-5-yl)acetamide] | < 50
COc1nc(N[C@@H]2CCC[C@H](c3nc4cc(NC(=O)C5OC5C(=O)O)ccc4n3C)C2)ncc1C#N (stereo partly drawn) [Example 51, 3-((2-((1S,3R)-3-((5-Cyano-4-methoxypyrimidin-2-yl)amino)cyclohexyl)-1-methyl-1H-benzo[d]imidazol-5-yl)carbamoyl)oxirane-2-carboxylic acid] | 50 to 500
COc1nc(N[C@@H]2CCC[C@H](c3nc4cc(NC(=O)C(C)Br)ccc4n3C)C2)ncc1C#N (stereo partly drawn) [Example 52, 2-Bromo-N-(2-((1S,3R)-3-((5-cyano-4-methoxypyrimidin-2-yl)amino)cyclohexyl)-1-methyl-1H-benzo[d]imidazol-5-yl)propanamide] | < 50
C=C(F)C(=O)Nc1ccc2c(c1)nc([C@H]1CCC[C@@H](Nc3ncc(C#N)c(OC)n3)C1)n2C [Example 53, N-(2-((1S,3R)-3-((5-Cyano-4-methoxypyrimidin-2-yl)amino)cyclohexyl)-1-methyl-1H-benzo[d]imidazol-5-yl)-2-fluoroacrylamide] | 50 to 500
CC#CC(=O)Nc1ccc2c(c1)nc([C@H]1CCC[C@@H](Nc3ncc(C#N)c(OC)n3)C1)n2C [Example 54, N-(2-((1S,3R)-3-((5-Cyano-4-methoxypyrimidin-2-yl)amino)cyclohexyl)-1-methyl-1H-benzo[d]imidazol-5-yl)but-2-ynamide] | 50 to 500
COc1nc(N[C@@H]2CCC[C@H](N3Cc4ccc(NC(=O)C(C)Br)cc4C3=O)C2)ncc1C#N (stereo partly drawn) [Example 55, 2-Bromo-N-(2-((1S,3R)-3-((5-cyano-4-methoxypyrimidin-2-yl)amino)cyclohexyl)-3-oxoisoindolin-5-yl)propanamide] | < 50
C=C(F)C(=O)Nc1ccc2c(c1)C(=O)N([C@H]1CCC[C@@H](Nc3ncc(C#N)c(OC)n3)C1)C2 [Example 56, N-(2-((1S,3R)-3-((5-Cyano-4-methoxypyrimidin-2-yl)amino)cyclohexyl)-3-oxoisoindolin-5-yl)-2-fluoroacrylamide] | 50 to 500
